Assays:
[1] = Particle size analysis of Compound A nanosuspension / microsuspension formulations; assay type: physicochemical; settings: jet mill feed pressure 4.5 bar, milling pressure 5.0 bar, before ball milling
Description: Milling was performed in a high energy ball mill with suitable sized-spherical, polymeric or Zirconium oxide beads. Compound A and excipient(s) as indicated in Table 1 were combined in deionized water per the indicated batch size and transferred to the milling chamber. Nanosuspensions A through D were generated utilizing process conditions denoted in Table 2.
Compound A was first mechanically jet-milled to reduce initial particle size prior to ball milling. The jet mill feed pressure was 4.5 bar and milling pressure was 5.0 bar. The resulting particle size of jet milled Compound A was 5-6 microns […]. […]
Compound A in a concentration range of between about 20 mg/mL to about 100 mg/mL (2-10% w/w), along with parenteral grade olive oil and 1% sorbitan monooleate [SPAN®80], was nano-milled using a high energy mill at 3000 rpm with 0.3 mm beads or 0.65 mm beads to produce microsuspensions. […] Performance of an amorphous microsuspension of Compound A was evaluated in Male SD rats. […] At each time point, approximately 0.2 mL blood was collected via jugular vein and analyzed by LC-MS/MS for mean plasma concentration of Compound A (FIG. 4). Pharmacokinetics determined that a target Cmin of 3 ng/mL was desired, which is denoted by the black dashed line in FIG. 4. […]

[2] = test system: SYO-1 human biphasic synovial sarcoma tumor cells; assay: Nanosuspension mouse efficacy study, SYO-1 xenograft tumor volume; assay type: in vivo; settings: SYO-1 xenograft mice, Cohorts 2-8, IV, SC, IM, 1-200 mg/kg, over 4 weeks, FIG. 3B
Description: (§1) Each mouse was inoculated subcutaneously on the right flank with a single cell suspension of SYO-1 human biphasic synovial sarcoma tumor cells (5×10^6) in 100 μL DMEM with 10% FBS for the tumor development. Treatment (Table 6) was started when mean tumor volume reached about 100-150 mm^3 for the efficacy cohorts. Based on the tumor volume, mice were randomly assigned to respective groups using a computer-generated randomization procedure. Corresponding formulations are in Table 6. For each dosing cohort, dosing volume was calculated based on concentration of the formulation and dose volume (ml/kg). Vehicle for IV was 20% HP-β-CD in 5 mM citrate buffer of pH 3, with adjustment to a final PH of 5. Body weight of all animals was measured and recorded twice a week throughout the study. The measurement of tumor size was conducted twice a week with a caliper and recorded. Tumor volume was used for calculation of tumor growth inhibition (TGI) value of the tumors in the treated and the control cohorts, respectively, on a given day after tumor inoculation.
64 plasma samples were collected at two time points (672 h and 676 h) from efficacy study cohorts. 64 tumor samples were collected at two time points (672 h and 676 h) from efficacy cohorts 1-8 and cut into 3 pieces: one piece for PK analysis, one piece for WB analysis (BRD9), and one piece snap frozen for further analysis (n=4). […]

[3] = Body weight / tolerability in mouse efficacy study; assay type: in vivo; settings: tumor-bearing mice, all doses and all modes of administration, 4 weeks, FIG. 3A
Description: as §1

COc1cc(-c2cn(C)c(=O)c3cnc(N4CCC4)cc23)cc(OC)c1CN1CCC(CN2CCC3(CC2)CN(c2ccc4c(c2)C(=O)N(C2CCC(=O)NC2=O)C4)C3)CC1 (stereo not drawn) [Compound A, 3-(6-(7-((1-(4-(6-(azetidin-1-yl)-2-methyl-1-oxo-1,2-dihydro-2,7-naphthyridin-4-yl)-2,6-dimethoxybenzyl)piperidin-4-yl)methyl)-2,7-diazaspiro[3.5]nonan-2-yl)-1-oxoisoindolin-2-yl)piperidine-2,6-dione]
particle size (D50) of jet milled Compound A [1]: 5-6 microns
tumor growth (tumor volume) versus Vehicle control [2]: slowed tumor growth significantly
body weight [3]: remaining fairly constant

Source: patent US20260224559A1, “FORMULATIONS FOR TREATING CANCER” (FOGHORN THERAPEUTICS INC., priority 2023, published 2026)
